Data taken from patent US11246863B2 (ALK-ABELLÓ, INC., priority 2015, dated 2022).
Read-outs that look alike come from different tables or passages of the source.

Experiments:
[1] = Particle size (D90) during manufacturing process; format: physicochemical
[2] = Loss on drying (weight loss upon heating); format: physicochemical; conditions: solid held at 40° C. 24 hours, then 125° C. oven one hour
Experimental: To assess the form of ciprofloxacin samples described in the present disclosure, a comparison experiment is conducted to evaluate the sample's loss of weight upon heating. […] The conditions and results of the experiment are summarized below: Experimental Setup—Loss on Drying: • If suspension: Pipette Cipro suspension onto filter on vacuum filter flask • Transfer filter/dry powder to 40° C. oven, hold 24 hours • Transfer solid to pre-weighed aluminum pan and weigh solid • Transfer pan to 125° C. oven, hold one hour • Weigh again and determine weight loss due to 125° C.

Haemophilus influenzae = conditions: cited from earlier work
Moraxella catarrhalis = conditions: cited from earlier work
Staphylococcus aureus = conditions: cited from earlier work
rats = conditions: oral doses up to 100 mg/kg/day; cited from earlier work
Streptococcus pneumoniae = conditions: cited from earlier work
Pseudomonas aeruginosa = conditions: cited from earlier work

Structure (SMILES): O=C(O)c1cn(C2CC2)c2cc(N3CCNCC3)c(F)cc2c1=O [Sample 2]
- particle size D90 [1]: around 60 μm
- Weight Loss on Drying [2]: 11.1%

Structure (SMILES): O=C(O)c1cn(C2CC2)c2cc(N3CCNCC3)c(F)cc2c1=O [Sample 1]
- particle size D90 ([1]; listed as Ciprofloxacin free base anhydrous API powder): under 15 μm
- Weight Loss on Drying [2]: 0.1%

Structure (SMILES): O=C(O)c1cn(C2CC2)c2cc(N3CCNCC3)c(F)cc2c1=O [Ciprofloxacin, 1-cyclopropyl-6-fluoro-1,4-dihydro-4-oxo-7-(1-piperazinyl)-3-quinolinecarboxylic acid]
- antimicrobial activity against isolates (Haemophilus influenzae): active against most isolates
- antimicrobial activity against isolates (Moraxella catarrhalis): active against most isolates
- antimicrobial activity against isolates (Staphylococcus aureus): active against most isolates
- impairment of fertility (rats): no evidence of impairment
- antimicrobial activity against isolates (Streptococcus pneumoniae): active against most isolates
- antimicrobial activity against isolates (Pseudomonas aeruginosa): active against most isolates
